Measurements published in US4610983A, “N-acyl acidic amino acid diamide derivative, a salt thereof, and an anti-ulcer agent containing the same” (Toyama Chemical Co., Ltd., priority 1984, dated 1986).

Legend:
Wistar strain rats [1] = assay: Anti-ulcer activity, Indomethacin-induced ulcers, oral (ED50); format: in vivo, Wistar strain rats (male); conditions: Rattus norvegicus, 1 h before Indomethacin 25 mg/kg p.o., ulcer lengths after 5 h, dose giving 50% of control
Description: On the other hand, Indomethacin alone was orally administered to a control group at the same dose.

[2] = Acute toxicity, intraperitoneal; conditions: mouse, in vivo, ip
Method: Each of the compounds of the Test Compound Nos. 2, 3, 4, 5, 6, 17, 23, 30 and 31 was intraperitoneally administered to ddY strain mice (.male., body wt. 23±2 g, 10 mice per group), and the LD50 values were measured to find that all of them were 600 mg/kg or more.

Wistar strain rats [3] = assay: Anti-ulcer activity, Indomethacin-induced ulcers, intraperitoneal (inhibition percentage); format: in vivo, Wistar strain rats (male); conditions: 50 mg/kg intraperitoneal, 1 h before Indomethacin 25 mg/kg p.o., ulcer lengths after 5 h; for inhibition in vivo at 50 mg/kg: Rattus norvegicus, ip
Method: On the other hand, Indomethacin alone was orally administered to a control group at the same dose. After 5 hours, the stomach of each rat was removed, and then the sum total of the lengths of the ulcers was measured and compared with that measured for the control group, whereby the inhibition percentage was calculated.

Molecule | LD50 ([2]; intraperitoneal, ddY male mice) | inhibition in vivo at 50 mg/kg (Wistar strain rats [3]) | also measured
CCCN(CCC)C(=O)C(CCC(=O)NC)NC(=O)/C=C/c1ccco1 (racemic) [Test Compound 1, DL-2-[β-(2-furyl)acrylamido]-N^5-methyl-N^1,N^1-di(n-propyl)pentane-1,5-diamide] |  |  | ED50 (Wistar strain rats [1]): 6.6 mg/kg
CCCN(CCC)C(=O)C(CCC(=O)N(C)C)NC(=O)/C=C/c1ccco1 (racemic) [Test Compound 2, DL-2-[β-(2-furyl)acrylamido]-N^5,N^5-dimethyl-N^1,N^1-di(n-propyl)-pentane-1,5-diamide] | ≥ 600 mg/kg |  | ED50 (Wistar strain rats [1]): 9 mg/kg
CN(C)C(=O)CCC(NC(=O)/C=C/c1ccco1)C(=O)N(C)C (racemic) [Test Compound 3, DL-2-[β-(2-furyl)acrylamido]-N^1,N^1,N^5,N^5-tetramethyl-pentane-1,5-diamide] | ≥ 600 mg/kg |  | ED50 (Wistar strain rats [1]): 10.8 mg/kg
CN(C)C(=O)CCC(NC(=O)/C=C/c1cc2ccccc2o1)C(=O)N(C)C (racemic) [Test Compound 4] | ≥ 600 mg/kg |  | 
CCCN(CCC)C(=O)C(CCC(=O)N(C)C)NC(=O)/C=C/c1cc2ccccc2o1 (racemic) [Test Compound 5, DL-2-[β-(2-benzofuryl)acrylamido]-N^5,N^5-dimethyl-N^1,N^1-di(n-propyl)-pentane-1,5-diamide] |  |  | LD50 [2]: ≥ 600 mg/kg
CN(C)C(=O)CCC(NC(=O)/C=C/c1cc2ccccc2o1)C(=O)N1CCCCC1 (racemic) [Test Compound 6] | ≥ 600 mg/kg |  | 
CCCN(CCC)C(=O)C(CCC(=O)O)NC(=O)c1ccccc1 (stereo not shown) [Proglumide, reference compound] |  | 0% | ED50 (Wistar strain rats [1]): 800 mg/kg
CCCN(CCC)C(=O)[C@H](CCC(=O)N(C)C)NC(=O)C1CCC(CN)CC1 (stereo partly shown) [compound 9] |  | 59% | 
CCCN(CCC)C(=O)[C@H](CCC(=O)N(C)C)NC(=O)CN1CCN(C)CC1 [compound 10] |  | 55% | 
CCCN(CCC)C(=O)[C@H](CCC(=O)N(C)C)NC(=O)CCN1CCN(C)CC1 [compound 11] |  | 41% | 
CCCN(CCC)C(=O)[C@H](CCC(=O)N(C)C)NC(=O)CCCN1CCN(C)CC1 [compound 12] |  | 47% | 
CCCN(CCC)C(=O)[C@H](CCC(=O)N(C)C)NC(=O)CCCN1CCN(CC)CC1 [compound 13] |  | 55% | 
CCCN(CCC)C(=O)[C@H](CCC(=O)N(C)C)NC(=O)CCCN1CCN(c2ccccc2)CC1 [compound 14] |  | 52% | 
CCCN(CCC)C(=O)[C@H](CCC(=O)N(C)C)NC(=O)CCCN1CCC(NC(=O)OCc2ccccc2)CC1 [compound 15] |  | 51% | 
CCCN(CCC)C(=O)[C@H](CCC(=O)N(C)C)NC(=O)/C=C/C(=O)c1ccc(OC)c(OC)c1 [compound 16] |  | 59% | 
CCCCNC(=O)CCC(NC(=O)/C=C/c1ccco1)C(=O)NCCCC (stereo not shown) [compound 17] | ≥ 600 mg/kg | 32.1% | 
CC(C)CNC(=O)CCC(NC(=O)/C=C/c1ccco1)C(=O)NCC(C)C (stereo not shown) [compound 18] |  | 37.9% | 
CC(=O)OCCCNC(=O)CCC(NC(=O)/C=C/c1ccco1)C(=O)NCCCOC(C)=O (stereo not shown) [compound 19] |  | 53% | 
CCCNC(=O)C(CCC(=O)NCCCOC(C)=O)NC(=O)/C=C/c1ccco1 (stereo not shown) [compound 20] |  | 53.5% | 
CCCNC(=O)C(CCC(N)=O)NC(=O)/C=C/c1ccco1 (stereo not shown) [compound 21] |  | 70.9% | 
O=C(/C=C/c1ccco1)NC(CCC(=O)NCCCl)C(=O)NCCCl (stereo not shown) [compound 22] |  | 56% | 
CC(C)NC(=O)CCC(NC(=O)/C=C/c1ccco1)C(=O)NC(C)C (stereo not shown) [compound 23] | ≥ 600 mg/kg | 52% | 
CCCN(CCC)C(=O)CCC(NC(=O)/C=C/c1ccco1)C(=O)N(CCC)CCC (stereo not shown) [compound 30] | ≥ 600 mg/kg |  | 
CCCCN(CCCC)C(=O)CCC(NC(=O)/C=C/c1ccco1)C(=O)N(CCCC)CCCC (stereo not shown) [compound 31] | ≥ 600 mg/kg |  | 
DL-N^1,N^5-bis(3-acetoxypropyl)-2-[β-(2-furyl)acrylamido]pentane-1,5-diamide [Test Compound 19] |  |  | Inhibition percentage (Wistar strain rats [3]): 40%
DL-N^5 -(3-acetoxypropyl)-2-[β-(2-furyl)acrylamido]-N^1 -n-propylpentane-1,5-diamide [Test Compound 20] |  |  | Inhibition percentage (Wistar strain rats [3]): 52%
